Columns and labels:
Capivasertib = compound: C1CN(CCC1(C(=O)N[C@@H](CCO)C2=CC=C(C=C2)Cl)N)C3=NC=NC4=C3C=CN4 [Capivasertib]; conditions: max 10 µM
Method in brief: (§1)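 After 24 hours at 37°C and 5% CO2 in 1536-well plates holding 7.5 μl of DMEM/F12 or RPMI with 10% FBS, cancer cell lines were dosed for 72 hours, with final DMSO typically 0.2%. Viability came from CellTiter-Glo 2.0 luminescence, scaled between the means of blank wells and DMSO wells. A non-linear mixed effects model fitted a two-parameter logistic curve to each dose response to give the single-agent IC50.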

Venetoclax = compound: CC1(C)CCC(CN2CCN(c3ccc(C(=O)NS(=O)(=O)c4ccc(NCC5CCOCC5)c([N+](=O)[O-])c4)c(Oc4cnc5[nH]ccc5c4)c3)CC2)=C(c2ccc(Cl)cc2)C1 [Venetoclax]; conditions: max 1 µM
Method in brief: as §1

AZD7648 = compound: Cc1cc2ncnn2cc1Nc1ncc2c(n1)n(C1CCOCC1)c(=O)n2C [AZD7648]; conditions: max 10 µM
Method in brief: as §1

SG3199 = compound: CC1=CN2[C@@H](C1)C=NC3=CC(=C(C=C3C2=O)OC)OCCCCCOC4=C(C=C5C(=C4)N=C[C@@H]6CC(=CN6C5=O)C)OC [SG3199]; conditions: max 0.001 µM
Method in brief: as §1

Selumetinib = compound: Cn1cnc2c(F)c(Nc3ccc(Br)cc3Cl)c(C(=O)NOCCO)cc21 [Selumetinib]; conditions: max 10 µM
Method in brief: as §1

Prexasertib = compound: COc1cccc(OCCCN)c1-c1cc(Nc2cnc(C#N)cn2)n[nH]1 [Prexasertib]; conditions: max 1 µM
Method in brief: as §1

Gefitinib = compound: COc1cc2ncnc(Nc3ccc(F)c(Cl)c3)c2cc1OCCCN1CCOCC1 [Gefitinib]; conditions: max 10 µM
Method in brief: as §1

Taselisib = compound: Cc1nc(-c2cn3c(n2)-c2ccc(-c4cnn(C(C)(C)C(N)=O)c4)cc2OCC3)n(C(C)C)n1 [Taselisib]; conditions: max 10 µM
Method in brief: as §1

Doxorubicin = compound: COc1cccc2c1C(=O)c1c(O)c3c(c(O)c1C2=O)C[C@@](O)(C(=O)CO)C[C@@H]3O[C@H]1C[C@H](N)[C@H](O)[C@H](C)O1 [Doxorubicin]; conditions: max 1 µM
Method in brief: as §1

Savolitinib = compound: C[C@@H](c1ccc2nccn2c1)n1nnc2ncc(-c3cnn(C)c3)nc21 [Savolitinib]; conditions: max 1 µM
Method in brief: as §1

AZD1390 = compound: CC(C)n1c(=O)n(C)c2cnc3cc(F)c(-c4ccc(OCCCN5CCCCC5)nc4)cc3c21 [AZD1390]; conditions: max 0.3 µM
Method in brief: as §1

AZD6738 = compound: C[C@@H]1COCCN1C2=NC(=NC(=C2)C3(CC3)[S@](=N)(=O)C)C4=C5C=CNC5=NC=C4 [AZD6738]; conditions: max 10 µM
Method in brief: as §1

AZD5991 = compound: Cc1c2c(nn1C)CSCc1cc(n(C)n1)CSc1cc(c3ccccc3c1)OCCCc1c(C(=O)O)n(C)c3c-2c(Cl)ccc13 [AZD5991]; conditions: max 1 µM
Method in brief: as §1

Olaparib = compound: O=C(c1cc(Cc2n[nH]c(=O)c3ccccc23)ccc1F)N1CCN(C(=O)C2CC2)CC1 [Olaparib]; conditions: max 10 µM
Method in brief: as §1

AZD0156 = compound: CN(C)CCCOc1ccc(-c2ccc3ncc4c(c3c2)n(C2CCOCC2)c(=O)n4C)cn1 [AZD0156]; conditions: max 3 µM
Method in brief: as §1

SN-38 = compound: CCc1c2c(nc3ccc(O)cc13)-c1cc3c(c(=O)n1C2)COC(=O)[C@]3(O)CC [SN-38]; conditions: max 0.3 µM
Method in brief: as §1

Dasatinib = compound: CC1=C(C(=CC=C1)Cl)NC(=O)C2=CN=C(S2)NC3=CC(=NC(=N3)C)N4CCN(CC4)CCO [Dasatinib]; conditions: max 2 µM
Method in brief: as §1

AZD8186 = compound: C[C@@H](Nc1cc(F)cc(F)c1)c1cc(C(=O)N(C)C)cc2c(=O)cc(N3CCOCC3)oc12 [AZD8186]; conditions: max 3 µM
Method in brief: as §1

Palbociclib = compound: CC(=O)c1c(C)c2cnc(Nc3ccc(N4CCNCC4)cn3)nc2n(C2CCCC2)c1=O [Palbociclib]; conditions: max 10 µM
Method in brief: as §1

AZD1775 = compound: C=CCn1c(=O)c2cnc(Nc3ccc(N4CCN(C)CC4)cc3)nc2n1-c1cccc(C(C)(C)O)n1 [AZD1775]; conditions: max 3 µM
Method in brief: as §1

Crizotinib = compound: C[C@@H](Oc1cc(-c2cnn(C3CCNCC3)c2)cnc1N)c1c(Cl)ccc(F)c1Cl [Crizotinib]; conditions: max 10 µM
Method in brief: as §1

AZD2811 = compound: CCN(CCO)CCCOc1ccc2c(Nc3cc(CC(=O)Nc4cccc(F)c4)[nH]n3)ncnc2c1 [AZD2811]; conditions: max 1 µM
Method in brief: as §1

AZD4320 = compound: CN(CC[C@H](CSC1=CC=CC=C1)NC2=C(C=C(C=C2)S(=O)(=O)NC(=O)C3=CC=C(C=C3)N4CCC(CC4)[C@H](C5=CC=CC=C5C6=CC=C(C=C6)Cl)O)S(=O)(=O)C(F)(F)F)CCO [AZD4320]; conditions: max 1 µM
Method in brief: as §1

Lapatinib = compound: CS(=O)(=O)CCNCc1ccc(-c2ccc3ncnc(Nc4ccc(OCc5cccc(F)c5)c(Cl)c4)c3c2)o1 [Lapatinib]; conditions: max 10 µM
Method in brief: as §1

AZD5153 = compound: COc1nnc2ccc(N3CCC(c4ccc(OCCN5CCN(C)C(=O)[C@H]5C)cc4)CC3)nn12 [AZD5153]; conditions: max 1 µM
Method in brief: as §1

Alisertib = compound: COc1cc(Nc2ncc3c(n2)-c2ccc(Cl)cc2C(c2c(F)cccc2OC)=NC3)ccc1C(=O)O [Alisertib]; conditions: max 10 µM
Method in brief: as §1

Trametinib = compound: CC(=O)Nc1cccc(-n2c(=O)n(C3CC3)c(=O)c3c(Nc4ccc(I)cc4F)n(C)c(=O)c(C)c32)c1 [Trametinib]; conditions: max 1 µM
Method in brief: as §1

Cell Line	IC50, cell viability 72 h (Capivasertib) [nM]	IC50, cell viability 72 h (Venetoclax) [nM]	IC50, cell viability 72 h (AZD7648) [nM]	IC50, cell viability 72 h (SG3199) [nM]	IC50, cell viability 72 h (Selumetinib) [nM]	IC50, cell viability 72 h (Prexasertib) [nM]	IC50, cell viability 72 h (Gefitinib) [nM]	IC50, cell viability 72 h (Taselisib) [nM]	IC50, cell viability 72 h (Doxorubicin) [nM]	IC50, cell viability 72 h (Savolitinib) [nM]	IC50, cell viability 72 h (AZD1390) [nM]	IC50, cell viability 72 h (AZD6738) [nM]	IC50, cell viability 72 h (AZD5991) [nM]	IC50, cell viability 72 h (Olaparib) [nM]	IC50, cell viability 72 h (AZD0156) [nM]	IC50, cell viability 72 h (SN-38) [nM]	IC50, cell viability 72 h (Dasatinib) [nM]	IC50, cell viability 72 h (AZD8186) [nM]	IC50, cell viability 72 h (Palbociclib) [nM]	IC50, cell viability 72 h (AZD1775) [nM]	IC50, cell viability 72 h (Crizotinib) [nM]	IC50, cell viability 72 h (AZD2811) [nM]	IC50, cell viability 72 h (AZD4320) [nM]	IC50, cell viability 72 h (Lapatinib) [nM]	IC50, cell viability 72 h (AZD5153) [nM]	IC50, cell viability 72 h (Alisertib) [nM]	IC50, cell viability 72 h (Trametinib) [nM]
CHP-212 (Neuroblastoma)	> 10000	> 1000	> 10000	> 1	12	51.5	> 10000	1080	254	> 1000	> 300	1830	257	> 10000	> 3000	17.5	59.6	> 3000	3360	221	2070	169	> 1000	> 10000	59.2	64.3	< 1
LN-18 (Glioblastoma)	> 10000	> 1000	> 10000	> 1	> 10000	209	> 10000	5680	> 1000	> 1000	> 300	8830	> 1000	> 10000	> 3000	138	> 2000	2530	> 10000	> 3000	> 10000	> 1000	> 1000	9520	342	1400	> 1000
HL-60 (Acute Myeloid Leukemia)	> 10000	80.3	> 10000	> 1	642	16.6	> 10000	> 10000	159	> 1000	> 300	7320	35.7	> 10000	> 3000	6.04	> 2000	> 3000	> 10000	1670	5820	30.6	32.7	> 10000	37	407	12.4
HDQ-P1 (Breast Carcinoma)	> 10000	> 1000	> 10000	> 1	> 10000	530	> 10000	4570	> 1000	> 1000	> 300	> 10000	> 1000	> 10000	> 3000	95.8	103	> 3000	> 10000	565	> 10000	> 1000	> 1000	> 10000	> 1000	> 10000	> 1000
DiFi (Colorectal Carcinoma)	> 10000	> 1000	> 10000	> 1	7260	16.7	52.4	606	961	> 1000	> 300	3530	> 1000	> 10000	> 3000	33.3	> 2000	> 3000	> 10000	1420	> 10000	595	> 1000	315	403	5960	42.8
KARPAS-45 (T-Lymphoblastic Leukemia)	3210	> 1000	> 10000	> 1	> 10000	33.6	9060	1450	> 1000	> 1000	> 300	3140	93.1	> 10000	> 3000	> 300	937	> 3000	624	243	1170	6.87	52.1	4370	25.1	86.3	> 1000
EVSA-T (Breast Carcinoma)	289	> 1000	> 10000	> 1	> 10000	> 1000	> 10000	1050	> 1000	> 1000	> 300	> 10000	56.1	> 10000	> 3000	> 300	> 2000	199	> 10000	> 3000	3360	> 1000	> 1000	4490	65.2	6350	> 1000
SU-DHL-8 (B-Cell Non-Hodgkin's Lymphoma)	> 10000	> 1000	> 10000	> 1	> 10000	7.48	> 10000	> 10000	107	> 1000	> 300	2060	144	> 10000	> 3000	3.04	> 2000	> 3000	> 10000	155	> 10000	> 1000	38.7	> 10000	684	6600	> 1000

Reference: the supplement of paper PMC11061612
